For 87 molecules, IC50 results are on record in PubChem BioAssay AID2305 (GlaxoSmithKline (GSK), 2010).

The assay concerns P. falciparum 3D7 growth, pLDH absorbance. The assay can be described thus: P. falciparum 3D7 growth inhibition, dose response, strain 3D7 (AID 2305).

On to `CC(C)N1CCN(C(CN2CCN(CCCOc3cccc4ccccc34)CC2)c2ccc(F)cc2)CC1` (configuration not stated), for which the IC50 – broadly, the concentration that gives 50% inhibition – worked out at 0.88 µM.
As for `O=C1COC2(CN1C1CCN(Cc3ccc(O)c(Cl)c3)C1)c1ccccc1-c1ccccc12` (configuration not stated), the figure is 0.96 µM; as for `O=C(/C=C/c1ccc(Cl)c(Cl)c1)NCCCCCN1CCC(NC(=O)c2cccc(Cl)c2)CC1`, 0.69 µM.
In the case of `O=C(Cc1ccc(NC(=O)c2ccc(O)c(-c3cccc([N+](=O)[O-])c3)c2)cc1)NCCN1CCCCC1` it was 0.9 µM; in that of `CCc1c[nH]c2c(N3CCCC3=O)cc(C(=O)N[C@@H](Cc3ccccc3)[C@H](O)CNC(C)(C)c3cccc(C(F)(F)F)c3)cc12`, 0.12 µM; in that of `CN(Cc1cccc(O)c1)C1CCN(c2cc(NC(=O)c3ccc(F)cc3)ccn2)C1` (configuration not stated), 1.15 µM.
As to `Cc1ccccc1OCC(O)CNC1CCC(NCC(O)COc2ccccc2C)CC1` (configuration not stated), the half-inhibitory concentration (IC50) was found to be 1.19 µM.
Turning to `Cc1nc(-c2ccc(C(F)(F)F)cn2)sc1C(=O)N1CCc2cc3nccc(N4CCN5CCC[C@H]5C4)c3cc21`, the IC50 was found to be 0.78 µM.
`CO/C(=C\C=C\c1cc2cc(Cl)c(Cl)cc2[nH]1)C(=O)NCCCN1CCN(c2cccc(OC)c2)CC1` displayed an IC50 of 0.84 µM.
In the case of `O=C(/C=C/c1ccc2ccccc2c1)NCCCCCN1CCC(c2c[nH]c3ccccc23)CC1` it was 1.23 µM; in that of `COc1cc2nc(Nc3ccc(C)cc3)nc(Nc3ccc(C)cc3)c2cc1OC`, 0.14 µM.
In the case of `COc1c(CNCCCCCCNCc2cc(Cl)c3ccccc3c2OC)cc(Cl)c2ccccc12` it was 0.94 µM.
In turn, `CNCCNCc1cccc(-c2ccc(-c3nc4c(C)cccc4[nH]3)cc2)c1` registered an IC50 of 0.8 µM.
As for `CCc1cn2c3c(cc(C(=O)N[C@@H](Cc4ccccc4)[C@H](O)CNC4CCC4)cc13)N(C)S(=O)(=O)CC2`, the figure is 0.1 µM; as for `COc1ccc(C(C(=O)NC2CCN(C[C@H](O)c3ccnc4ccc(OC)cc34)CC2)N2CCN(c3ccc(Cl)c(Cl)c3)CC2)cc1` (some centres not stated), 0.2 µM; as for `COc1cccc(OC)c1CN1CCC(N(C)CCCCCCCCN2CCC(OC(=O)Nc3ccccc3-c3ccccc3)CC2)CC1`, 0.46 µM.
In the case of `CCCC(C)Nc1nc(C)cc(N[C@@H](Cc2ccccc2)C(=O)Nc2ccccc2)n1` (some centres not stated) it was 0.86 µM; in that of `O=c1cc(NCCCCNCc2cccc(Cl)c2)[nH]c2ccccc12`, 0.74 µM.
`COc1ccc(CC2(c3ccc(F)cc3)N=C(N)N(CCCc3cccnc3)C2=O)cc1` (configuration not stated) displayed a half-maximal inhibitory concentration (IC50) of 0.67 µM. The IC50 values of the last two molecules are within 1.5-fold of each other.
In turn, `O=C(/C=C/c1ccc(Cl)c(Cl)c1)NCCCCCN1CCCC(C(=O)Nc2ccc(Cl)c(Cl)c2)C1` (configuration not stated) had a 50% inhibitory concentration (IC50) of 0.78 µM.
With `COC(=O)c1cccc(NC(=O)NCCNc2ccnc(Nc3ccc(F)cc3)n2)c1`, the half-inhibitory concentration (IC50) stood at 0.84 µM. The IC50 values of the last two molecules are within 1.5-fold of each other.
As for `CCc1ccc(CC(C)NCC(O)c2ccccc2)cc1` (configuration not stated), the figure is 0.89 µM; as for `CCC[C@@H]([C@@H](Cc1ccc(C)s1)C(=O)N[C@@H](CNC(C)=O)C(=O)Nc1nccs1)N(O)C=O`, 0.18 µM; as for `CC(C)(C)[C@@H](Nc1ccc(C#N)c2ccccc12)C(=O)NC1(Cc2ccc(O)cc2)CCCC1`, 1.44 µM.
As for `Cc1nnc2c(NC(=O)NC(C)C)cc3cc(-c4ccc(CN5CCCCC5)cc4)ccc3n12`, the figure is 1.18 µM; as for `O=C(NCc1cccc2ccccc12)c1ccc(CNC2CCN(Cc3ccccc3)CC2)cc1`, 0.84 µM; as for `CCOc1c(CCNCCCCNCCc2ccc3ccccc3c2OCC)ccc2ccccc12`, 0.6 µM.
`COc1cccc(NC(=O)NC2CCN(CCCCCNC(=O)/C=C/c3ccc(Cl)c(Cl)c3)CC2)c1` gave an IC50 of 0.78 µM. This IC50 and that of the molecule before are within 1.5-fold of each other.
With `Cc1cc(NN=Cc2cccc([N+](=O)[O-])c2)c2ccc(F)cc2n1`, the IC50 stood at 0.69 µM.
In the case of `O=C(Nc1cccc(-c2csc(NC(=O)c3ccc4ccccc4c3)n2)c1)c1ccc2ccccc2c1` it was 0.71 µM; in that of `O=C(Nc1ccc(-c2cncc(NCCCN3CCCC3)c2)cc1)c1ccccc1`, 0.94 µM.
As for `O=C(NC1CC1)c1ccc(N2CCCC(COc3ccccc3F)C2)nc1` (configuration not stated), the figure is 0.9 µM; as for `c1cc(CNCC2CCCO2)cc(-c2cccc(-c3nc4ccccc4[nH]3)c2)c1` (configuration not stated), 0.86 µM.
In the case of `FC(F)(F)c1ccc(-c2ccc(CNC3CCN(CCN4CCOCC4)CC3)cc2)cc1` it was 0.76 µM; in that of `O[C@@H](c1ccc2ccccc2c1)[C@@H]1CN(CCc2ccccc2)CC[C@@]1(O)c1ccccc1`, 0.55 µM.
`CCCCCCN1CCC(NCc2ccc(C)cc2)CC1` displayed an IC50 of 0.86 µM.
For `COc1ccccc1CCNc1nc(C)cc(N[C@@H](Cc2ccccc2)C(=O)NCc2cccs2)n1`, the concentration for half-maximal inhibition (IC50) came out at 0.63 µM. The IC50 values of the last two molecules are within 1.5-fold of each other.
Molecule `COc1cc2nc(Nc3ccc4c(c3)OCCO4)nc(N)c2cc1OC` displayed an IC50 of 0.47 µM.
As for `O=C(/C=C/c1ccc(Cl)c(Cl)c1)NCCCCCN1CCC(c2[nH]nc(-c3ccccc3)c2Br)CC1`, the figure is 0.72 µM; as for `O=C(Nc1ccccc1)N(Cc1ccc(-c2cccc(CNC3CCCC3)c2)cc1)C1CCN(Cc2ccccc2)CC1`, 0.43 µM.
In the case of `CS(=O)(=O)c1ccccc1CNC(=O)c1ccc(-c2cccc(-c3nc4ccc(C(F)(F)F)cc4[nH]3)c2)cc1`, the IC50 was determined as 0.87 µM.
In the case of `COc1nc2c(N3CCN(CCNCc4ccc5c(n4)NC(=O)CO5)CC3)ccnc2cc1F` it was 0.76 µM; in that of `C=CCn1cc(C2CCN(CCCCNC(=O)c3sc(-c4ccc(C(F)(F)F)cc4)nc3CO)CC2)c2cc(OC)ccc21`, 1.04 µM; in that of `CN(C)CCOc1ccc(-c2cc(-c3ccc(Cl)c(O)c3)c(-c3ccnc(N)n3)o2)cc1`, 1.32 µM.
As to `Nc1ncc(-c2ccsc2)c2ccc(-c3cnc[nH]3)cc12`, the IC50 was determined as 0.57 µM. This IC50 is about 2.3-fold lower than that of the molecule before.
As for `CCN(CC)CCNC(=O)c1ccc(NC(=O)c2cc3c(C)nn(-c4ccc(Cl)cc4)c3s2)cc1`, the figure is 0.25 µM; as for `S=C(Nc1ccccc1Cl)NC1CCC(CN2CCC(c3c[nH]c4ccccc34)CC2)CC1` (configuration not stated), 1.05 µM.
In the case of `N#Cc1ccc2c(c1)CCN(CCC1CCC(NC(=O)Nc3ccncc3)CC1)C2` (configuration not stated) it was 1.13 µM.
In the case of `CCCCCN1CCCC(NS(=O)(=O)c2cccc(C(=O)Nc3cccc(C(F)(F)F)c3)c2)C1` (configuration not stated) it was 1.07 µM.
In the case of `CCN(CCCN1CCCCC1)c1nc(C)cc(Nc2ccc(Cl)cc2)n1`, the IC50 stood at 0.84 µM.
As for `O=C(CN1CCN(C(C(=O)Nc2cc(C(F)(F)F)ccc2Cl)c2ccccc2)CC1)NC1CC1` (configuration not stated), the figure is 0.44 µM; as for `COc1ccc(CNCCCCCCNCc2ccc(OC)c3ccccc23)c2ccccc12`, 0.58 µM; as for `O=C(NCc1ccc(F)cc1)Nc1ccc(-c2ccc(-c3nc4ccccc4[nH]3)cc2)cc1`, 0.09 µM.
As for `Oc1ccc(CCNCCCCCCNCCc2ccc(-c3ccccc3)cc2)cc1O`, the figure is 0.6 µM.
For the molecule `Cc1cc(=O)c(-c2ccc(Sc3ccc(Cl)cc3)cc2)c(C)[nH]1`, the half-maximal inhibitory concentration (IC50) was determined as 0.97 µM.
In the case of `c1ccc(Oc2ccc(Nc3ccnc4cc(-c5ccc(CN6CCOCC6)o5)ccc34)cc2)nc1` it was 0.91 µM; in that of `c1ccc2c(NCCCCCCCCCNc3ccnc4ccccc34)ccnc2c1`, 0.12 µM; in that of `COc1ccccc1/C=C/C(=O)NC1CCC(CCN2CCc3ccc(-c4cc(C)no4)cc3CC2)CC1` (configuration not stated), 0.96 µM.
In the case of `Cc1ccnc2nc(C(=O)Nc3cc(C(F)(F)F)ccc3N3CCCCC3)nn12` it was 0.06 µM; in that of `CCn1ccc2c(N3CCCC3=O)cc(C(=O)N[C@@H](Cc3ccccc3)[C@H](O)CNC3CCCCC3)cc21`, 0.12 µM; in that of `Cc1ccccc1CN1CCCN(Cc2ccc(C(=O)Nc3ccc(C(C)(C)C)cc3)cc2)CC1`, 0.86 µM.
As for `O=C(NCCNc1ccnc(NCc2ccc(F)cc2)n1)c1cc2ccccc2s1`, the IC50 was 0.7 µM.
Turning to `COCCn1ccc2c3c(N)nc(N)nc3ccc21`, the IC50 stood at 0.21 µM.
As for `CCCCN(CCCC)CCC(O)C(=Cc1ccc(Cl)cc1Cl)c1ccc(C(F)(F)F)cc1N` (configuration not stated), the figure is 0.19 µM.
In the case of `COc1ccc2nccc([C@@H](O)CN3CCC(NCc4ccc5c(c4)NC(=O)C(C)S5)CC3)c2c1` (some centres not stated) it was 0.2 µM; in that of `CCCCSc1ccc(CNCCCCCCNCc2ccc(SCCCC)c3ccccc23)c2ccccc12`, 0.63 µM; in that of `CCCN(CCCCCCN(CCC)CCc1ccc(O)c(O)c1)CCc1ccc(O)cc1`, 1.01 µM.
In the case of `Cc1cccc2[nH]c(-c3ccc(-c4cccc(CN5CCC(N)C5)c4)s3)nc12` (configuration not stated) it was 0.77 µM; in that of `C=CCc1ccccc1OCC(O)CN(C1CCCCC1)C1CCCCC1` (configuration not stated), 0.81 µM.
`CN1CCN(c2ccc(Nc3ccnc4ccc(-c5ccccc5)cc34)cc2)CC1` gave a 50% inhibitory concentration (IC50) of 0.09 µM.
In the case of `CN1CCN(CC(=O)Nc2ccc(-c3cccc(-c4nc5ccc(F)cc5[nH]4)c3)cc2)CC1` it was 0.83 µM.
In the case of `CCCN1CCN(CCNC(=O)c2cccc(Nc3nccc(Nc4ccc(Oc5ccccc5)cc4)n3)c2)CC1` it was 0.24 µM; in that of `COCC(=O)N(Cc1ccccc1-c1ccc(CNCCc2ccccc2)cc1)C1CCN(Cc2ccccc2)CC1`, 0.89 µM.
As for `CCOc1ccc2c(NN=Cc3cccc(OC)c3)cc(C)nc2c1`, the figure is 0.12 µM.
In turn, `Oc1ccc2nc(Nc3ccccc3)nc(NCCc3ccccc3)c2c1` displayed a 50% inhibitory concentration (IC50) of 0.15 µM.
As for `c1ccc(CC2=NCCN2)cc1`, the figure is 0.19 µM.
As for `O=C(NC(=O)c1ccccc1)NC1CCN(c2ccnc3cc(Cl)ccc23)C1` (configuration not stated), the figure is 0.58 µM; as for `Fc1ccc(-c2oc(C3CCN(CCc4ccc(-c5nc(=S)o[nH]5)cc4)CC3)nc2COCC(F)(F)F)cc1`, 0.42 µM.
As for `COc1cc2nc(NCCc3ccccc3)nc(NCCc3ccccc3)c2cc1OC`, the figure is 0.28 µM; as for `FC(F)(F)c1cccc(CNC2CCN(CC3CCCCC3)CC2)c1`, 0.58 µM.
On to `COc1c(C2CCN(CCCCNC(=O)c3ccc(-c4ccc(Cl)cc4)c(OCCN(C)C)c3)CC2)ccc2c1CCCC2`, for which the IC50 amounted to 0.19 µM.
For `COc1ccc2nc(N)nc(C)c2c1`, the half-maximal inhibitory concentration (IC50) came out at 0.93 µM.
In the case of `NCCCCc1c(-c2ccc(Cl)c(Cl)c2)[nH]c2ccc(Cl)cc12` it was 0.91 µM; in that of `CCN(CCCN1CCCCC1)c1cc(C)nc(Nc2ccc(C(F)(F)F)cc2)n1`, 0.37 µM; in that of `COc1cccc(CN2CCC(N3CCc4cc(NC(=O)c5cc(C)on5)ccc43)C2)c1OC` (configuration not stated), 0.95 µM.
Take `COc1cc(OC)c(NC(=O)C2c3ccccc3C(=O)N(CC(C)C)C2c2cccs2)cc1Cl` (configuration not stated): the IC50 stood at 0.05 µM.
As for `Cc1ccc2nc(C)cc(NN=Cc3ccccc3Cl)c2c1`, the figure is 0.75 µM.
